Assay results: patent US6946457B2, “Methods of treating sickle cell disease” (The Trustees of Columbia University in the City of New York, priority 2001, dated 2005)

How the values were obtained:
HbS erythrocytes [1] = test: Inhibition of sickling of intact erythrocytes at low oxygen tension; format: cell-based, human; details: for sickling of deoxygenated erythrocytes: microscope, formalin-fixed
Description: The procedure used was essentially that of Cerami and Manning (15). The source of the red cells was human blood in which HbS represented essentially 100% of the total hemoglobin as determined by electrophoresis on a cellulose acetate membrane in a Supre-Heme® Tris-EDTA-boric acid buffer (Helena Laboratories, Beaumont, Tex.).
Ten microliters of blood was diluted to 5 ml with PBS and 1 ml aliquots were distributed into the same type of cuvettes used to study hemoglobin S aggregation (see above). Two #25 hypodermic needles were inserted into each plastic diaphragm and nitrogen was passed over the surface of the erythrocyte suspension for 15 minutes with periodic gentle shaking. The hypodermic needles were removed and the sealed cuvettes were left for 2 hours at room temperature. The control cuvette was treated identically except that the cap was loosened for the 2 hour period.
Then 250 μl of 10% buffered formalin (Metpath) was added to the cell suspensions, which were allowed to stand at room temperature for 15 minutes. The cell suspensions were then sedimented by centrifugation, suspended in 100 μl of PBS and examined under the microscope.

HbS erythrocytes [2] = details: literature (15, 16); cited from earlier work
hemoglobin S = molecular target: T1, hemoglobin S (Homo sapiens, UniProt P68871+P69905, E7V); test: Inhibition of aggregation of deoxygenated hemoglobin S (turbidity at 700 nm); format: biochemical; details: low oxygen tension, 1.8M phosphate buffer, 30° C.
T1 construct: from tissue; host or cells: blood / erythrocytes of a subject with sickle cell disease (inferred from the general method)
Description: Inhibition of Aggregation of Hemoglobin S
To a 10 mm cuvette (Type 9GL14S, Septum seal, Uvonic Instruments, Plainview, N.Y. 11803) containing 0.9 ml of 1.8M phosphate buffer, pH 9.4, was added 5 mg of Na2S203. The cuvette was capped and two #25 hypodermic needles were inserted through the soft plastic seals. Nitrogen was passed over the surface of the solution for 15 minutes to drive off oxygen; the cuvette was then gently shaken to dissolve the Na2S203. The cuvette was then placed in an ice bath to bring the solution to 4° C. and 0.1 ml of a 2 g/dl HbS solution (13, 14) was added through the plastic diaphragm with a Hamilton air-tight syringe. The temperature of the solution in the cuvette was raised by placing it in a 30° C. bath and then into a spectrophotometer in which the increase in turbidity was measured with time at 700 nm. […] The latter was extracted with phosphate buffer from tablets of Valtrex (Glaxo Wellcome).

human hemoglobin = human hemoglobin (Homo sapiens, UniProt P68871+P69905); details: personal communication; cited from earlier work

in vitro aggregation of HbS (hemoglobin S) | Structure (SMILES) | concentration relative to the effective concentration of acyclovir (HbS erythrocytes [1]; KCNO 2.4 mg/ml versus acyclovir (FIG. 2)) | concentration used to inhibit sickling (HbS erythrocytes [2]) | sickling of deoxygenated erythrocytes (HbS erythrocytes [1]; 0.2 mg/ml) | sickling of deoxygenated erythrocytes (HbS erythrocytes [1]; 0.3 mg/ml) | sickling of deoxygenated erythrocytes (HbS erythrocytes [1]; 0.4 mg/ml) | proportion of sickling cells (HbS erythrocytes [1]; lowest concentration (FIG. 2B, 0.2 mg/ml)) | change in Hill coefficient (human hemoglobin) | change in oxygen affinity (human hemoglobin)
– | N#C[O-].[K+] [KCNO] | more than 10 × | 2.4 mg/mL | – | – | – | – | – | –
inhibiting | Nc1nc2c(ncn2COCCO)c(=O)[nH]1 [acyclovir, 2-amino-1,9-dihydro-9-[(2-hydroxyethoxy)methyl]-6H-purin-6-one] | – | – | Minimal sickling | Minimal sickling | essentially no sickling | below 60% | no significant change | no significant change
inhibiting | CC(C)[C@H](N)C(=O)OCCOCn1cnc2c(=O)[nH]c(N)nc21 [valacyclovir, L-valine, 2-[(2-amino-1,6-dihydro-6-oxo-9H-purin-9-yl)methoxy]ethyl ester] | – | – | – | – | – | – | – | –
